Paper PMC4814262 (Cancer Science, 2016)

Biological target: LAT1 (Homo sapiens, UniProt Q01650)
Experiment: radiolabelled uptake in Xenopus oocytes
Type: cell-based
Conditions: Na+-free uptake buffer (choline-Cl), pH 7.5, room temperature, 15 min; labelled compound

Chain of LAT1 (Q01650 whole entry): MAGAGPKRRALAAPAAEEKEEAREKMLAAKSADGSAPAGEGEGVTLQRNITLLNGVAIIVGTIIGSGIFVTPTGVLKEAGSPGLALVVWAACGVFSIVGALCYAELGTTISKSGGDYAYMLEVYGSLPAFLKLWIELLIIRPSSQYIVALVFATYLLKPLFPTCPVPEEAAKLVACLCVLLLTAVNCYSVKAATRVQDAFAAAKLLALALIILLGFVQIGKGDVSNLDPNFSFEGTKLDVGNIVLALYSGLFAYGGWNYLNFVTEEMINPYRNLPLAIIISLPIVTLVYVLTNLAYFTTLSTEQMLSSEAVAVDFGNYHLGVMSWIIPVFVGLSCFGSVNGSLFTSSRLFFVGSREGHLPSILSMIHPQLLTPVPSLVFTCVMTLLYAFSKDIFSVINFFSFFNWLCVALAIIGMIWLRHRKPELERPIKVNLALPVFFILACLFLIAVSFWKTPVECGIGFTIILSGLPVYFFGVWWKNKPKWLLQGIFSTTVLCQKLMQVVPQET
Chain of LAT1 (P08195 103-630 partner): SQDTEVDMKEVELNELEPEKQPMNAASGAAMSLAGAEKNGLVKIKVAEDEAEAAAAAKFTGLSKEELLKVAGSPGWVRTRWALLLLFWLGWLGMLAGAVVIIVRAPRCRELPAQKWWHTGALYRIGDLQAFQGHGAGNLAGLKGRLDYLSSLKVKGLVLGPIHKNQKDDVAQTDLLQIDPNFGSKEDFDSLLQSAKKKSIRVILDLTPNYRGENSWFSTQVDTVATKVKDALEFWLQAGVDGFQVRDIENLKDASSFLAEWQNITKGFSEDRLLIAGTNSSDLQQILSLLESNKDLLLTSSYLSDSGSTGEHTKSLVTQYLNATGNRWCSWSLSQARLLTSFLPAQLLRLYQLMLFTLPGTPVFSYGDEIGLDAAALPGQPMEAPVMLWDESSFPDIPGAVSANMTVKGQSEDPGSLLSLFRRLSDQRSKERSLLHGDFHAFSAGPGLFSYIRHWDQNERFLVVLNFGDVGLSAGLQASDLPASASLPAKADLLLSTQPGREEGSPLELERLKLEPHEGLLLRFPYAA

Km: 72.7 ± 11 µM
SMILES: C[C@](N)(Cc1ccc(O)c(F)c1)C(=O)O [FAMT, 3‐fluoro‐L‐α‐methyl[carboxyl‐^14C]tyrosine]
